Results taken from the NIST ThermoML archive (doi:10.1016/j.jct.2012.06.012).

Experiment: xn = mol fraction of the nth substance listed
Settings: Liquid, Vibrating tube method

CCCCCCCCCC [decane] + CCO
Settings	mass density [kg/m3]
313.07 K, 1000 kPa, x2 = 0.9014	753.75
313.07 K, 2000 kPa, x2 = 0.9014	754.71
313.07 K, 3000 kPa, x2 = 0.9014	755.67
313.07 K, 4000 kPa, x2 = 0.9014	756.61
313.07 K, 5000 kPa, x2 = 0.9014	757.53
313.07 K, 6000 kPa, x2 = 0.9014	758.44
313.07 K, 7000 kPa, x2 = 0.9014	759.33
313.07 K, 8000 kPa, x2 = 0.9014	760.24
313.07 K, 9000 kPa, x2 = 0.9014	761.14
313.07 K, 10000 kPa, x2 = 0.9014	762.04
313.07 K, 11000 kPa, x2 = 0.9014	762.94
313.07 K, 12000 kPa, x2 = 0.9014	763.84
313.07 K, 13000 kPa, x2 = 0.9014	764.72
313.07 K, 14000 kPa, x2 = 0.9014	765.58
313.07 K, 15000 kPa, x2 = 0.9014	766.45
313.07 K, 16000 kPa, x2 = 0.9014	767.29
313.07 K, 17000 kPa, x2 = 0.9014	768.13
313.07 K, 18000 kPa, x2 = 0.9014	768.94
313.07 K, 19000 kPa, x2 = 0.9014	769.74
313.07 K, 20000 kPa, x2 = 0.9014	770.52
313.08 K, 1000 kPa, x2 = 0.1011	715.15
313.08 K, 1000 kPa, x2 = 0.4963	724.28
313.08 K, 1000 kPa, x2 = 0.7526	738.33
313.08 K, 2000 kPa, x2 = 0.1011	716.05
313.08 K, 2000 kPa, x2 = 0.4963	725.2
313.08 K, 2000 kPa, x2 = 0.7526	739.26
313.08 K, 3000 kPa, x2 = 0.1011	716.93
313.08 K, 3000 kPa, x2 = 0.4963	726.11
313.08 K, 3000 kPa, x2 = 0.7526	740.19
313.08 K, 4000 kPa, x2 = 0.1011	717.8
313.08 K, 4000 kPa, x2 = 0.4963	727
313.08 K, 4000 kPa, x2 = 0.7526	741.1
313.08 K, 5000 kPa, x2 = 0.1011	718.66
313.08 K, 5000 kPa, x2 = 0.4963	727.87
313.08 K, 5000 kPa, x2 = 0.7526	741.99
313.08 K, 6000 kPa, x2 = 0.1011	719.51
313.08 K, 6000 kPa, x2 = 0.4963	728.73
313.08 K, 6000 kPa, x2 = 0.7526	742.87
313.08 K, 7000 kPa, x2 = 0.1011	720.34
313.08 K, 7000 kPa, x2 = 0.4963	729.58
313.08 K, 7000 kPa, x2 = 0.7526	743.75
313.08 K, 8000 kPa, x2 = 0.1011	721.16
313.08 K, 8000 kPa, x2 = 0.4963	730.44
313.08 K, 8000 kPa, x2 = 0.7526	744.64
313.08 K, 9000 kPa, x2 = 0.1011	721.98
313.08 K, 9000 kPa, x2 = 0.4963	731.3
313.08 K, 9000 kPa, x2 = 0.7526	745.53
313.08 K, 10000 kPa, x2 = 0.1011	722.8
313.08 K, 10000 kPa, x2 = 0.4963	732.16
313.08 K, 10000 kPa, x2 = 0.7526	746.41
313.08 K, 11000 kPa, x2 = 0.1011	723.63
313.08 K, 11000 kPa, x2 = 0.4963	733
313.08 K, 11000 kPa, x2 = 0.7526	747.29
313.08 K, 12000 kPa, x2 = 0.1011	724.45
313.08 K, 12000 kPa, x2 = 0.4963	733.86
313.08 K, 12000 kPa, x2 = 0.7526	748.17
313.08 K, 13000 kPa, x2 = 0.1011	725.26
313.08 K, 13000 kPa, x2 = 0.4963	734.7
313.08 K, 13000 kPa, x2 = 0.7526	749.03
313.08 K, 14000 kPa, x2 = 0.1011	726.06
313.08 K, 14000 kPa, x2 = 0.4963	735.54
313.08 K, 14000 kPa, x2 = 0.7526	749.89
313.08 K, 15000 kPa, x2 = 0.1011	726.85
313.08 K, 15000 kPa, x2 = 0.4963	736.35
313.08 K, 15000 kPa, x2 = 0.7526	750.73
313.08 K, 16000 kPa, x2 = 0.1011	727.63
313.08 K, 16000 kPa, x2 = 0.4963	737.16
313.08 K, 16000 kPa, x2 = 0.7526	751.56
313.08 K, 17000 kPa, x2 = 0.1011	728.39
313.08 K, 17000 kPa, x2 = 0.4963	737.95
313.08 K, 17000 kPa, x2 = 0.7526	752.38
313.08 K, 18000 kPa, x2 = 0.1011	729.13
313.08 K, 18000 kPa, x2 = 0.4963	738.72
313.08 K, 18000 kPa, x2 = 0.7526	753.17
313.08 K, 19000 kPa, x2 = 0.1011	729.85
313.08 K, 19000 kPa, x2 = 0.4963	739.47
313.08 K, 19000 kPa, x2 = 0.7526	753.95
313.08 K, 20000 kPa, x2 = 0.1011	730.55
313.08 K, 20000 kPa, x2 = 0.4963	740.21
313.08 K, 20000 kPa, x2 = 0.7526	754.7
313.09 K, 1000 kPa, x2 = 0.0937	715.17
313.09 K, 2000 kPa, x2 = 0.0937	716.07
313.09 K, 3000 kPa, x2 = 0.0937	716.95
313.09 K, 4000 kPa, x2 = 0.0937	717.82
313.09 K, 5000 kPa, x2 = 0.0937	718.68
313.09 K, 6000 kPa, x2 = 0.0937	719.53
313.09 K, 7000 kPa, x2 = 0.0937	720.36
313.09 K, 8000 kPa, x2 = 0.0937	721.18
313.09 K, 9000 kPa, x2 = 0.0937	721.99
313.09 K, 10000 kPa, x2 = 0.0937	722.79
313.09 K, 11000 kPa, x2 = 0.0937	723.62
313.09 K, 12000 kPa, x2 = 0.0937	724.43
313.09 K, 13000 kPa, x2 = 0.0937	725.25
313.09 K, 14000 kPa, x2 = 0.0937	726.06
313.09 K, 15000 kPa, x2 = 0.0937	726.84
313.09 K, 16000 kPa, x2 = 0.0937	727.61
313.09 K, 17000 kPa, x2 = 0.0937	728.37
313.09 K, 18000 kPa, x2 = 0.0937	729.11
313.09 K, 19000 kPa, x2 = 0.0937	729.84
313.09 K, 20000 kPa, x2 = 0.0937	730.54
313.11 K, 1000 kPa, x2 = 0.2507	717.71
313.11 K, 2000 kPa, x2 = 0.2507	718.61
313.11 K, 3000 kPa, x2 = 0.2507	719.5
313.11 K, 4000 kPa, x2 = 0.2507	720.38
313.11 K, 5000 kPa, x2 = 0.2507	721.25
313.11 K, 6000 kPa, x2 = 0.2507	722.07
313.11 K, 7000 kPa, x2 = 0.2507	722.9
313.11 K, 8000 kPa, x2 = 0.2507	723.74
313.11 K, 9000 kPa, x2 = 0.2507	724.57
313.11 K, 10000 kPa, x2 = 0.2507	725.41
313.11 K, 11000 kPa, x2 = 0.2507	726.25
313.11 K, 12000 kPa, x2 = 0.2507	727.08
313.11 K, 13000 kPa, x2 = 0.2507	727.91
313.11 K, 14000 kPa, x2 = 0.2507	728.72
313.11 K, 15000 kPa, x2 = 0.2507	729.52
313.11 K, 16000 kPa, x2 = 0.2507	730.3
313.11 K, 17000 kPa, x2 = 0.2507	731.07
313.11 K, 18000 kPa, x2 = 0.2507	731.81
313.11 K, 19000 kPa, x2 = 0.2507	732.55
313.11 K, 20000 kPa, x2 = 0.2507	733.26
322.98 K, 1000 kPa, x2 = 0.4963	715.95
322.98 K, 2000 kPa, x2 = 0.4963	716.92
322.98 K, 3000 kPa, x2 = 0.4963	717.88
322.98 K, 4000 kPa, x2 = 0.4963	718.83
322.98 K, 5000 kPa, x2 = 0.4963	719.75
322.98 K, 6000 kPa, x2 = 0.4963	720.66
322.98 K, 7000 kPa, x2 = 0.4963	721.56
322.98 K, 8000 kPa, x2 = 0.4963	722.48
322.98 K, 9000 kPa, x2 = 0.4963	723.39
322.98 K, 10000 kPa, x2 = 0.4963	724.3
322.98 K, 11000 kPa, x2 = 0.4963	725.2
322.98 K, 12000 kPa, x2 = 0.4963	726.08
322.98 K, 13000 kPa, x2 = 0.4963	726.98
322.98 K, 14000 kPa, x2 = 0.4963	727.85
322.98 K, 15000 kPa, x2 = 0.4963	728.71
322.98 K, 16000 kPa, x2 = 0.4963	729.56
322.98 K, 17000 kPa, x2 = 0.4963	730.39
322.98 K, 18000 kPa, x2 = 0.4963	731.19
322.98 K, 19000 kPa, x2 = 0.4963	731.99
322.98 K, 20000 kPa, x2 = 0.4963	732.78
322.99 K, 1000 kPa, x2 = 0.0937	707.2
322.99 K, 1000 kPa, x2 = 0.9014	745.03
322.99 K, 2000 kPa, x2 = 0.0937	708.15
322.99 K, 2000 kPa, x2 = 0.9014	746.04
322.99 K, 3000 kPa, x2 = 0.0937	709.09
322.99 K, 3000 kPa, x2 = 0.9014	747.05
322.99 K, 4000 kPa, x2 = 0.0937	710.01
322.99 K, 4000 kPa, x2 = 0.9014	748.04
322.99 K, 5000 kPa, x2 = 0.0937	710.92
322.99 K, 5000 kPa, x2 = 0.9014	749.01
322.99 K, 6000 kPa, x2 = 0.0937	711.82
322.99 K, 6000 kPa, x2 = 0.9014	749.97
322.99 K, 7000 kPa, x2 = 0.0937	712.7
322.99 K, 7000 kPa, x2 = 0.9014	750.92
322.99 K, 8000 kPa, x2 = 0.0937	713.57
322.99 K, 8000 kPa, x2 = 0.9014	751.88
322.99 K, 9000 kPa, x2 = 0.0937	714.44
322.99 K, 9000 kPa, x2 = 0.9014	752.84
322.99 K, 10000 kPa, x2 = 0.0937	715.32
322.99 K, 10000 kPa, x2 = 0.9014	753.79
322.99 K, 11000 kPa, x2 = 0.0937	716.18
322.99 K, 11000 kPa, x2 = 0.9014	754.74
322.99 K, 12000 kPa, x2 = 0.0937	717.04
322.99 K, 12000 kPa, x2 = 0.9014	755.67
322.99 K, 13000 kPa, x2 = 0.0937	717.9
322.99 K, 13000 kPa, x2 = 0.9014	756.6
322.99 K, 14000 kPa, x2 = 0.0937	718.73
322.99 K, 14000 kPa, x2 = 0.9014	757.52
322.99 K, 15000 kPa, x2 = 0.0937	719.56
322.99 K, 15000 kPa, x2 = 0.9014	758.41
322.99 K, 16000 kPa, x2 = 0.0937	720.37
322.99 K, 16000 kPa, x2 = 0.9014	759.31
322.99 K, 17000 kPa, x2 = 0.0937	721.18
322.99 K, 17000 kPa, x2 = 0.9014	760.18
322.99 K, 18000 kPa, x2 = 0.0937	721.95
322.99 K, 18000 kPa, x2 = 0.9014	761.04
322.99 K, 19000 kPa, x2 = 0.0937	722.72
322.99 K, 19000 kPa, x2 = 0.9014	761.88
322.99 K, 20000 kPa, x2 = 0.0937	723.46
322.99 K, 20000 kPa, x2 = 0.9014	762.71
